Assay results taken from ChEMBL document CHEMBL4261653, “PPARγ-sparing thiazolidinediones as insulin sensitizers. Design, synthesis and selection of compounds for clinical development” (Bioorg Med Chem, 2018).

Assay: Oral bioavailability in rat
Type: ADME, organism-based
Settings: in vivo

| Compound | bioavailability [%] |
| --- | --- |
| COc1cccc(C(=O)COc2ccc(CC3SC(=O)NC3=O)cc2)c1 (configuration not stated) | 100 |
| CCc1ccc(C(=O)COc2ccc(CC3SC(=O)NC3=O)cc2)nc1 (configuration not stated) [MITOGLITAZONE] | 73 |
